Measurements: ChEMBL document CHEMBL3826947, “New 4-Acyl-1-phenylaminocarbonyl-2-phenylpiperazine Derivatives as Potential Inhibitors of Adenovirus Infection. Synthesis, Biological Evaluation, and Structure-activity Relationships” (J Med Chem, 2016)

Legend:
Human adenovirus 5 [1] = assay: Antiviral activity against HAdV5 infected in human A549 cells assessed as inhibition of viral entry at 50 uM preincubated for 45 mins followed by cell addition measured after 48 hrs by GFP reporter gene assay relative to control; assay type: functional; conditions: Human mastadenovirus C
[2] = Cytotoxicity against human A549 cells assessed as cell viability after 48 hrs by Alamar blue assay; assay type: cell-based
Human adenovirus 5 [3] = assay: Antiviral activity against HAdV5 infected in 293beta5 cells assessed as inhibition of plaque formation at 10 uM after 7 days by GFP reporter gene assay relative to control; assay type: functional; conditions: Human mastadenovirus C, 293beta5, 168 h

SMILES	inhibition at 50 µM (Human adenovirus 5 [1]) [%]	CC50 at 48 h [2] [µM]	inhibition at 10 µM (Human adenovirus 5 [3]) [%]
CC1CN(C(=O)c2cc3ccccc3o2)CCN1C(=O)Nc1ccccc1[N+](=O)[O-] (stereo not drawn)	0	203	91
CC1CN(C(=O)C(C)(C)C)CCN1C(=S)Nc1ccc([N+](=O)[O-])cc1 (stereo not drawn)	< 20	–	64
CC1CN(C(=O)c2cc3ccccc3o2)CCN1C(=O)Nc1ccc(C#N)cc1 (stereo not drawn)	78	118	83
CC(C)(C)OC(=O)N1CCN(C(=O)Nc2ccccc2[N+](=O)[O-])C(c2ccccc2)C1 (stereo not drawn)	62	82.2	100
COc1ccc(NC(=O)N2CCN(C(=O)c3ccccc3)CC2C)cc1 (stereo not drawn)	50	–	0
CC1CN(C(=O)c2cc3ccccc3o2)CCN1C(=O)Nc1ccc([N+](=O)[O-])cc1 (stereo not drawn)	86	51.1	94
COc1ccc(NC(=O)N2CCN(C(=O)C(C)(C)C)CC2c2ccccc2)cc1 (stereo not drawn)	0	199	70
CC(C)(C)OC(=O)N1CCN(C(=O)Nc2ccc(C(F)(F)F)cc2)C(c2ccccc2)C1 (stereo not drawn)	75	42.1	71
CC1CN(C(=O)OC(C)(C)C)CCN1C(=O)Nc1ccc(Cl)cc1 (stereo not drawn)	37	150	62
CC1CN(C(=O)C(C)(C)C)CCN1C(=O)c1ccc([N+](=O)[O-])cc1 (stereo not drawn)	< 20	–	23
COc1ccc(C(=O)N2CCN(C(=O)C(C)(C)C)CC2C)cc1 (stereo not drawn)	< 20	–	0
CC(C)(C)OC(=O)N1CCN(C(=O)Nc2ccc(Cl)c(C(F)(F)F)c2)C(c2ccccc2)C1 (stereo not drawn)	93	27.5	100
CC(C)(C)C(=O)N1CCN(C(=O)Nc2ccc(C#N)cc2)C(c2ccccc2)C1 (stereo not drawn)	74	147	84
CC1CN(C(=O)OC(C)(C)C)CCN1C(=O)Nc1ccc(C(F)(F)F)cc1 (stereo not drawn)	57	137	31
CC1CN(C(=O)c2ccccc2)CCN1C(=O)Nc1ccc([N+](=O)[O-])cc1 (stereo not drawn)	50	–	72
CC1CN(C(=O)OC(C)(C)C)CCN1C(=O)c1ccc([N+](=O)[O-])cc1 (stereo not drawn)	< 20	–	34
CC1CN(C(=O)OC(C)(C)C)CCN1C(=O)Nc1ccc([N+](=O)[O-])cc1 (stereo not drawn)	65	143	91
CC1CN(C(=O)c2cc3ccccc3o2)CCN1C(=O)Nc1ccc(Cl)cc1 (stereo not drawn)	36	144	70
CC1CN(C(=O)OC(C)(C)C)CCN1C(=O)Nc1ccccc1[N+](=O)[O-] (stereo not drawn)	0	–	50
COc1ccc(C(=O)N2CCN(C(=O)OC(C)(C)C)CC2C)cc1 (stereo not drawn)	< 20	–	34
CC1CN(C(=O)C(C)(C)C)CCN1C(=O)Nc1ccc([N+](=O)[O-])cc1 (stereo not drawn)	50	–	0
COc1ccc(NC(=O)N2CCN(C(=O)OC(C)(C)C)CC2C)cc1 (stereo not drawn)	–	–	49
O=C(c1cc2ccccc2o1)N1CCN(C(=O)Nc2ccc(C(F)(F)F)cc2)C(c2ccccc2)C1 (stereo not drawn)	61	70.7	100

SMILES	inhibition at 50 µM (Human adenovirus 5 [1]) [%]	CC50 at 48 h [2] [µM]	inhibition at 10 µM (Human adenovirus 5 [3]) [%]
COc1ccc(NC(=O)N2CCN(C(=O)c3cc4ccccc4o3)CC2C)cc1 (stereo not drawn)	< 20	–	34
CC1CN(C(=O)c2ccccc2)CCN1C(=S)Nc1ccc([N+](=O)[O-])cc1 (stereo not drawn)	41	31.4	94
CC(C)(C)OC(=O)N1CCN(C(=O)Nc2ccc(F)cc2)C(c2ccccc2)C1 (stereo not drawn)	70	110	76
CC1CN(C(=O)OC(C)(C)C)CCN1C(=S)Nc1ccc([N+](=O)[O-])cc1 (stereo not drawn)	< 20	26.3	100
O=C(c1cc2ccccc2o1)N1CCN(C(=O)Nc2ccc(F)cc2)C(c2ccccc2)C1 (stereo not drawn)	88	12.5	99
COc1ccc(NC(=O)N2CCN(C(=O)OC(C)(C)C)CC2c2ccccc2)cc1 (stereo not drawn)	39	133	79
CC1CN(C(=O)c2cc3ccccc3o2)CCN1C(=O)Nc1ccc(F)cc1 (stereo not drawn)	0	220	92
CC1CN(C(=O)c2cc3ccccc3o2)CCN1C(=O)Nc1ccc(C(F)(F)F)cc1 (stereo not drawn)	60	82.2	92
COc1ccc(NC(=O)N2CCN(C(=O)C(C)(C)C)CC2C)cc1 (stereo not drawn)	< 20	–	0
COc1ccccc1NC(=O)N1CCN(C(=O)c2cc3ccccc3o2)CC1C (stereo not drawn)	0	–	16
CC1CN(C(=O)OC(C)(C)C)CCN1C(=O)Nc1ccc(Cl)c(C(F)(F)F)c1 (stereo not drawn)	72	20.8	100
CC1CN(C(=O)c2cc3ccccc3o2)CCN1C(=O)Nc1ccccc1 (stereo not drawn)	0	–	11
CC(C)(C)OC(=O)N1CCN(C(=O)Nc2ccc(C#N)cc2)C(c2ccccc2)C1 (stereo not drawn)	45	91.3	67
CC(C)(C)OC(=O)N1CCN(C(=O)Nc2ccc(Cl)cc2)C(c2ccccc2)C1 (stereo not drawn)	96	17.1	86
CC1CN(C(=O)c2cc3ccccc3o2)CCN1C(=O)Nc1ccc(F)cc1F (stereo not drawn)	0	–	34
CC1CN(C(=O)c2cc3ccccc3o2)CCN1C(=O)Nc1ccccc1Br (stereo not drawn)	44	–	56
CC(C)(C)OC(=O)N1CCN(C(=O)Nc2cc(C(F)(F)F)ccc2Cl)C(c2ccccc2)C1 (stereo not drawn)	89	93.4	100
Cc1ccc(NC(=O)N2CCN(C(=O)OC(C)(C)C)CC2c2ccccc2)cc1 (stereo not drawn)	65	165	63
CC1CN(C(=O)c2ccccc2)CCN1C(=O)c1ccc([N+](=O)[O-])cc1 (stereo not drawn)	< 20	–	0
CC(C)(C)C(=O)N1CCN(C(=O)Nc2ccc([N+](=O)[O-])cc2)C(c2ccccc2)C1 (stereo not drawn)	60	102	44
CC1CN(C(=O)OC(C)(C)C)CCN1C(=O)Nc1cc(C(F)(F)F)ccc1Cl (stereo not drawn)	31	63.5	96
COc1ccc(C(=O)N2CCN(C(=O)c3ccccc3)CC2C)cc1 (stereo not drawn)	0	–	0
CC1CN(C(=O)c2cc3ccccc3o2)CCN1C(=O)Nc1ccccc1F (stereo not drawn)	0	–	51
